In US10189777B2, “Benzenesulfonamido and related compounds for use as agonists of RORγ and the treatment of disease” (Lycera Corporation, priority 2014, dated 2019):

How the values were obtained:
[1] = molecular target: T1, HIS-tagged RORγ-LBD protein (Homo sapiens, UniProt P51449); assay: RORγ-Ligand Binding Domain (LBD) TR-FRET Assay; type: biochemical; details: for TR-FRET Assay Max Response: upper plateau of 4-parameter fit, signal in the absence of ursolic acid or test compound set as 100; for EC50: with 2 μM RORγ antagonist ursolic acid, biotinylated SRC1 LXXLL peptide, ratio 665 nm/615 nm
T1 construct: made in house; host or cells: SF9 cells, baculovirus expression system; the lysate was used
T1 sequence (P51449 269-508 limits assumed): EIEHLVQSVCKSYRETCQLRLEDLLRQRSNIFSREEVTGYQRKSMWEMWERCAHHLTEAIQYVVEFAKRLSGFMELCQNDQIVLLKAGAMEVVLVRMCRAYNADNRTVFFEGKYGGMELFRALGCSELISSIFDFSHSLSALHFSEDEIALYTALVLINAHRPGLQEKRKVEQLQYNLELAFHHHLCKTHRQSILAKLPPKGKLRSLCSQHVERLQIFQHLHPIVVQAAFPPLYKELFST
Experimental: (§1) Exemplary compounds from the above Examples were tested for ability to increase RORγ activity using (i) a RORγ-Ligand Binding Domain (LBD) TR-FRET Assay, and (ii) a Gal4-RORγ Luciferase Reporter Assay in HEK-293T Cells. Assay procedures and results are described below.
Part I—Procedures for RORγ-Ligand Binding Domain TR-FRET Assay
HIS-tagged RORγ-LBD protein was expressed in SF9 cells using a baculovirus expression system. The lysate was diluted in assay buffer (50 mM Tris pH 7.0, 50 mM KCl, 1 mM EDTA, 0.1 mM DTT, 0.01% BSA) to obtain RORγ-LBD final concentration of −3 nM in a 384-well assay plate (need to titrate for each batch of protein).
A stock of biotinylated-LXXLL peptide from coactivator SRC1 (Biotin-[…]) was prepared in assay buffer and added to each well (200 nM final concentration). A solution of Europium tagged anti-HIS antibody (0.6 nM final concentration) and APC-conjugated streptavidin (30 nM final concentration) were also added to each well. RORγ antagonist ursolic acid was also included at a final concentration of 2 μM. Compounds were diluted in DMSO and further diluted in assay buffer with a final DMSO concentration at 1%.
The final assay mixture was incubated overnight at 4° C. or 2 hours at room temperature, and the fluorescence signal was measured on an Envision plate reader: (Excitation filter=340 nm; APC emission=665 nm; Europium emission=615 nm; dichroic mirror=D400/D630; delay time=100 μs, integration time=200 μs). 50% Effective concentration (EC50) values for test compounds were calculated from the quotient of the fluorescence signal at 665 nm divided by the fluorescence signal at 615 nm. The quotient of the fluorescence signals in the absence of ursolic acid or test compound is set as 100. Max Response is defined as the upper plateau in the signal as determined by line-fit using a 4-parameter logistic model in PRISM (GraphPad).

[2] = molecular target: T2, Gal4-RORγ-LBD (Homo sapiens, UniProt P51449); assay: Gal4-RORγ Luciferase Reporter Assay in HEK-293T Cells; type: cell-based; details: for EC50: HEK-293 cells, with 2 μM ursolic acid, incubated overnight, luciferase readout; for Gal4-RORγ Assay Max Response: upper plateau of 4-parameter fit, luciferase signal in the absence of ursolic acid or test compound defined at 100
T2 construct: expressed in transfected cells
T2 sequence (P51449 269-508 limits assumed): T1 sequence (P51449 269-508 limits assumed)
Experimental: as §1
Part II—Procedures for Gal4-RORγ Luciferase Reporter Assay in HEK-293T Cells
Transfection of HEK-293 Cells
In the following protocol, HEK-293 cells were transfected with a construct comprising the Gal4 DNA binding domain fused to the ligand binding domain of RORγ (Gal4-RORγ-LBD) in a pcDNA3.1neo plasmid, and also with a reporter construct comprising pGL4.31 Gal4-luciferase (Promega). Control cells were prepared similarly using empty pcDNA3.1neo and pGL4.31 vectors.
Trans-IT reagent (Mirus, 60 μL) at room temperature was added drop wise to OptiMEM (Invitrogen, 1.5 ml). This reagent mixture was mixed by inversion then incubated for 5 to 30 minutes at room temperature. It then was added to a solution of both expression vectors (5 μg each), mixed, and incubated at room temperature for about 20 minutes. HEK-293 cells were harvested from incubation flasks by removing the media, treating with TrypLE Express (Invitrogen), and incubating until the cells detached from the bottom of the flask (approximately 2-5 minutes). 10 Million cells were collected by centrifugation and re-suspended in 10 mL of Dulbecco's Modified Eagle Medium, High Glucose (DMEM, Invitrogen) containing 10% Fetal Bovine Serum and 100 IU each of penicillin and streptomycin. The re-suspended cells and the transfection mixture were added to a T75 flask, mixed and incubated overnight at 37° C. and 5% CO2.
The cells were harvested as described above, counted, and centrifuged to obtain the desired number of cells, then re-suspended in complete growth media at 0.75×10^6 cells/mL. The RORγ antagonist, ursolic acid, was added to the cells at a final concentration of 2 μM. Cells were plated at 20 μL of cell suspension/well (10,000-15,000 cells/well) in white tissue culture treated 384 well plates. Test compounds were dissolved at 10 mM in DMSO then diluted into complete growth medium to 5× the final intended test concentration. These drug stock solutions, 5 μL/well were added to the tissue culture plate. The final DMSO concentration was 0.2%. The plates were briefly centrifuged then incubated overnight at 37° C. and 5% CO2. To conduct the assay, the tissue culture plates were allowed to equilibrate to room temperature and One-Glo luciferase reagent (Promega, 25 μL/well) was added. The plates were briefly centrifuged then incubated at room temperature for 10 minutes. The luciferase intensity was read on an Envision plate reader (Perkin Elmer). RORγ activity was determined relative to controls and plotted as a function of test compound concentration using PRISM (GraphPad) to determine a 50% effective concentration (EC50). The luciferase signal in the absence of ursolic acid or test compound is defined at 100. The Max Response is the upper plateau in the signal as determined by line-fit using a 4-parameter logistic model in PRISM (GraphPad).

Compound: CCN(c1cccc(OC2CCc3cccc(F)c32)c1)S(=O)(=O)c1cccc(C(F)(F)F)c1 (stereo not shown)
- TR-FRET Assay Max Response [1]: *** (The symbol “***” indicates a value in the range of greater than 150 to 200)
- EC50 [1]: < 500 nM
- EC50 [2]: > 10000 nM
- Gal4-RORγ Assay Max Response [2]: **** (The symbol “****” indicates a value greater than 200)

Compound: CCN(c1cccc(OC2CCc3cccc(Cl)c32)c1)S(=O)(=O)c1cccc(C(F)(F)F)c1 (stereo not shown)
- TR-FRET Assay Max Response [1]: *** (The symbol “***” indicates a value in the range of greater than 150 to 200)
- EC50 [1]: < 500 nM
- EC50 [2]: 5000 to 10000 nM
- Gal4-RORγ Assay Max Response [2]: *** (The symbol “***” indicates a value in the range of greater than 150 to 200)

Compound: CCN(c1cccc(OCc2c(Cl)cccc2Cl)c1)S(=O)(=O)c1cccc(C(F)(F)F)c1
- TR-FRET Assay Max Response [1]: *** (The symbol “***” indicates a value in the range of greater than 150 to 200)
- EC50 [1]: < 500 nM
- EC50 [2]: 500 to 5000 nM
- Gal4-RORγ Assay Max Response [2]: ** (The symbol “**” indicates a value in the range of greater than 90 to 150)

Compound: CCN(c1cccc(OCCc2c(Cl)cccc2Cl)c1)S(=O)(=O)c1cccc(C(F)(F)F)c1
- TR-FRET Assay Max Response [1]: **** (The symbol “****” indicates a value greater than 200)
- EC50 [1]: 500 to 5000 nM
- EC50 [2]: 500 to 5000 nM
- Gal4-RORγ Assay Max Response [2]: ** (The symbol “**” indicates a value in the range of greater than 90 to 150)

Compound: CCN(c1cccc(OCCc2c(F)cccc2Cl)c1)S(=O)(=O)c1cccc(C(F)(F)F)c1
- TR-FRET Assay Max Response [1]: *** (The symbol “***” indicates a value in the range of greater than 150 to 200)
- EC50 [1]: 500 to 5000 nM
- EC50 [2]: > 10000 nM
- Gal4-RORγ Assay Max Response [2]: ** (The symbol “**” indicates a value in the range of greater than 90 to 150)

Compound: CCN(c1cccc(OCc2c(F)cccc2C(F)(F)F)c1)S(=O)(=O)c1cccc(C(F)(F)F)c1
- TR-FRET Assay Max Response [1]: **** (The symbol “****” indicates a value greater than 200)
- EC50 [1]: < 500 nM
- EC50 [2]: 500 to 5000 nM
- Gal4-RORγ Assay Max Response [2]: ** (The symbol “**” indicates a value in the range of greater than 90 to 150)

Compound: CCN(c1cccc(OCc2c(F)cccc2OC)c1)S(=O)(=O)c1cccc(C(F)(F)F)c1
- TR-FRET Assay Max Response [1]: **** (The symbol “****” indicates a value greater than 200)
- EC50 [1]: < 500 nM
- EC50 [2]: > 10000 nM

Compound: CCN(c1cccc(OCc2cc(Cl)ccc2Cl)c1)S(=O)(=O)c1cccc(C(F)(F)F)c1
- TR-FRET Assay Max Response [1]: **** (The symbol “****” indicates a value greater than 200)
- EC50 [1]: < 500 nM
- EC50 [2]: 5000 to 10000 nM
- Gal4-RORγ Assay Max Response [2]: *** (The symbol “***” indicates a value in the range of greater than 150 to 200)

Compound: CCN(c1cccc(OCc2ccccc2Cl)c1)S(=O)(=O)c1cccc(C(F)(F)F)c1
- TR-FRET Assay Max Response [1]: **** (The symbol “****” indicates a value greater than 200)
- EC50 [1]: 500 to 5000 nM
- EC50 [2]: 500 to 5000 nM
- Gal4-RORγ Assay Max Response [2]: ** (The symbol “**” indicates a value in the range of greater than 90 to 150)

Compound: CCOc1nn(CC)cc1S(=O)(=O)N(CC)c1cccc(OC2CCc3ccccc32)c1 (stereo not shown)
- TR-FRET Assay Max Response [1]: **** (The symbol “****” indicates a value greater than 200)
- EC50 [1]: 500 to 5000 nM
- EC50 [2]: > 10000 nM

Compound: CCOc1nn(CC)cc1S(=O)(=O)N(CC)c1cccc(OCc2c(F)cccc2Cl)c1
- TR-FRET Assay Max Response [1]: **** (The symbol “****” indicates a value greater than 200)
- EC50 [1]: 500 to 5000 nM
- EC50 [2]: 500 to 5000 nM
- Gal4-RORγ Assay Max Response [2]: ** (The symbol “**” indicates a value in the range of greater than 90 to 150)

Compound: CCN(c1cccc(NCc2ccccc2Cl)c1)S(=O)(=O)c1cccc(C(F)(F)F)c1
- TR-FRET Assay Max Response [1]: **** (The symbol “****” indicates a value greater than 200)
- EC50 [1]: < 500 nM
- EC50 [2]: 500 to 5000 nM
- Gal4-RORγ Assay Max Response [2]: ** (The symbol “**” indicates a value in the range of greater than 90 to 150)

Compound: CCC(c1ccc(OCc2c(F)cccc2Cl)cc1)S(=O)(=O)c1cccc(C(F)(F)F)c1 (stereo not shown)
- TR-FRET Assay Max Response [1]: *** (The symbol “***” indicates a value in the range of greater than 150 to 200)
- EC50 [1]: < 500 nM
- EC50 [2]: < 500 nM
- Gal4-RORγ Assay Max Response [2]: ** (The symbol “**” indicates a value in the range of greater than 90 to 150)

Compound: CCC(c1cccc(OCc2ccccc2)c1)S(=O)(=O)c1cccc(C(F)(F)F)c1 (stereo not shown)
- TR-FRET Assay Max Response [1]: ** (The symbol “**” indicates a value in the range of greater than 90 to 150)
- EC50 [1]: 5000 to 10000 nM
- EC50 [2]: 500 to 5000 nM
- Gal4-RORγ Assay Max Response [2]: * (The symbol “*” indicates a value in the range of 70 to 90)

Compound: CCC(c1ccc(OCc2c(F)cccc2Cl)cc1)S(=O)(=O)c1ccc(Cl)cc1 (stereo not shown)
- TR-FRET Assay Max Response [1]: *** (The symbol “***” indicates a value in the range of greater than 150 to 200)
- EC50 [1]: < 500 nM
- EC50 [2]: 500 to 5000 nM
- Gal4-RORγ Assay Max Response [2]: * (The symbol “*” indicates a value in the range of 70 to 90)
